Laboratory results taken from patent US11286268B1, “EIF4E-inhibiting compounds and methods” (EFFECTOR THERAPEUTICS, INC., priority 2019, dated 2022).
Read-outs that look alike come from different tables or passages of the source.

Target: recombinant eIF4E (Homo sapiens (Human), UniProt P06730)
Test: Fluorescence polarization competition assay for eIF4E binding potency
Method in brief: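 Competitive displacement format: compounds compete with a fluorescent m7GDP tracer (20 nM) for 75 nM recombinant eIF4E. Incubation is 30 min at room temperature, protected from light, with 1% DMSO. Polarization read gives IC50 over eight 3-fold concentrations.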

[1] = fluorescence polarization competition, 75 nM recombinant eIF4E, 20 nM EDA-m7GDP-ATTO-550, IC50 class, read-out: elF4E FP
[2] = inhibition of eIF4E/EDA-m7GDP-ATTO-550 binding by 50%, Table 4B calculated values, read-out: IC50

Chain of recombinant eIF4E (P06730 whole entry): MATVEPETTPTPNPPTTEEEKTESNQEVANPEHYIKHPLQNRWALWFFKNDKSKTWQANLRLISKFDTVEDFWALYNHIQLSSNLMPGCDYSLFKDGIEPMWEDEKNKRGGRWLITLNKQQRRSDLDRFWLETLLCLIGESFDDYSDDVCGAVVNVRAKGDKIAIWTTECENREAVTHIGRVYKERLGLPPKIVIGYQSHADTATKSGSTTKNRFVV

Row | IC50 [1] [nM] | IC50 [2] [nM] | Structure (SMILES)
1 | 50 to 1000 | 69.9 | Cc1cc(-c2cc(Cl)ccc2OCCn2c(C)nc3cc(C(F)(F)F)c(Cc4cccnc4)c(Cl)c3c2=O)c2scc(C(=O)O)c2n1 [compound 399]
2 | < 50 | 31.1 | Cc1nc2cc(C(F)(F)F)c(CN(C)C)cc2c(=O)n1CCOc1ccc(Cl)cc1-c1ccnc2c(C(=O)O)csc12 [compound 408]
3 | < 50 | 14.3 | Cc1c(C(F)(F)F)cc2nc(C)n(CCOc3ccc(Cl)cc3-c3ccnc4c(C(=O)O)csc34)c(=O)c2c1C#N [compound 415]
4 | < 50 | 19.7 | Cc1cc(-c2cc(Cl)ccc2OCCn2c(C)nc3cc(C(F)(F)F)c(CN4CCN(C)CC4)c(C#N)c3c2=O)c2sc(C)c(C(=O)O)c2n1 [compound 417]
5 | < 50 | 11.5 | Cc1cc(-c2cc(Cl)ccc2OCCn2c(C)nc3cc(C(F)(F)F)c(N4CCCC4)c(C#N)c3c2=O)c2scc(C(=O)O)c2n1 [compound 422]
6 | < 50 | 8.84 | Cc1cc(-c2cc(Cl)ccc2OCCn2c(C)nc3cc(C(F)(F)F)c(N4CCCCC4)c(C#N)c3c2=O)c2scc(C(=O)O)c2n1 [compound 423]
7 | < 50 | 4.08 | Cc1cc(-c2cc(Cl)ccc2OCCn2c(C)nc3cc(C(F)(F)F)c(CC4CNC4)c(C#N)c3c2=O)c2scc(C(=O)O)c2n1 [compound 424]
8 | < 50 | 11.2 | Cc1cc(-c2cc(Cl)ccc2OCCn2c(C)nc3cc(C(F)(F)F)c(CC4CN(C)C4)c(C#N)c3c2=O)c2scc(C(=O)O)c2n1 [compound 425]
9 | < 50 | 41.2 | Cc1cc(-c2cc(Cl)ccc2OCCn2c(C)nc3cc(C(F)(F)F)c(-c4ccccn4)cc3c2=O)c2scc(C(=O)O)c2n1 [compound 426]
10 | < 50 | 25 | Cc1cc(-c2cc(Cl)ccc2OCCn2c(C)nc3cc(C(F)(F)F)c(N4CCN(C)CC4)cc3c2=O)c2scc(C(=O)O)c2n1 [compound 427]
11 | < 50 | 7.45 | Cc1cc(-c2cc(Cl)ccc2OCCn2c(C)nc3cc(C(F)(F)F)c(N4CCN(CC(F)F)CC4)c(C#N)c3c2=O)c2scc(C(=O)O)c2n1 [compound 428]
12 | < 50 |  | Cc1cc(-c2cc(Cl)ccc2OCCn2c(C)nc3cc(C(F)(F)F)c(C4=CCOCC4)c(C#N)c3c2=O)c2scc(C(=O)O)c2n1 [compound 429]
13 | < 50 | 9 | Cc1cc(-c2cc(Cl)ccc2OCCn2c(C)nc3cc(C(F)(F)F)c(N4CCN(CCF)CC4)c(C#N)c3c2=O)c2scc(C(=O)O)c2n1 [compound 430]
14 | 50 to 1000 | 226 | Cc1cc(-c2cc(Cl)ccc2OCCn2c(C)nc3cc(C(F)(F)F)c(C4CCOCC4)c(C#N)c3c2=O)c2scc(C(=O)O)c2n1 [compound 431]
15 | < 50 | 16.7 | Cc1cc(-c2cc(Cl)ccc2OCCn2c(C)nc3cnc(N4CCC4)c(C#N)c3c2=O)c2scc(C(=O)O)c2n1 [compound 435]
16 | < 50 | 7.17 | Cc1cc(-c2cc(Cl)ccc2OCCn2c(C)nc3cc(C(F)(F)F)c(-c4ccncc4C)nc3c2=O)c2scc(C(=O)O)c2n1 [compound 436]
17 | < 50 | 17.7 | Cc1cc(-c2c(C(F)(F)F)cc3nc(C)n(CCOc4ccc(Cl)cc4-c4cc(C)nc5c(C(=O)O)csc45)c(=O)c3c2C#N)cnn1 [compound 442]

Further lines, the molecule ahead of its results:

Row | Structure (SMILES) | IC50 [1] [nM] | IC50 [2] [nM]
18 | Cc1cc(-c2cc(Cl)ccc2OCCn2c(C)nc3c(C)nc(CC4CCOCC4)c(C#N)c3c2=O)c2scc(C(=O)O)c2n1 [compound 400] | < 50 | 4.68
19 | Cc1nc2cc(C(F)(F)F)cc(C#N)c2c(=O)n1CCOc1ccc(Cl)cc1-c1cccc2c(C(=O)O)csc12 [compound 402] | 50 to 1000 | 124
20 | COc1ccc(C#N)c2c(=O)n(CCOc3ccc(Cl)cc3-c3ccnc4c(C(=O)O)csc34)c(C)nc12 [compound 403] | < 50 | 12.6
21 | COc1ccc2nc(C)n(CCOc3ccc(Cl)cc3-c3ccnc4c(C(=O)O)csc34)c(=O)c2c1C#N [compound 404] | < 50 | 10.1
22 | COc1cc(C#N)c2c(=O)n(CCOc3ccc(Cl)cc3-c3ccnc4c(C(=O)O)csc34)c(C)nc2c1 [compound 405] | < 50 | 19.7
23 | Cc1nc2ccc(OC(F)(F)F)c(C#N)c2c(=O)n1CCOc1ccc(Cl)cc1-c1ccnc2c(C(=O)O)csc12 [compound 406] | < 50 | 11.4
24 | Cc1nc2c(F)cc(Cl)c(C#N)c2c(=O)n1CCOc1ccc(Cl)cc1-c1ccnc2c(C(=O)O)csc12 [compound 407] | < 50 | 33.1
25 | Cc1cc(-c2cc(Cl)ccc2OCCc2c(C)n(C)c3cc(C(F)(F)F)cc(C#N)c3c2=O)c2scc(C(=O)O)c2n1 [compound 409] | < 50 | 13.3
26 | Cc1cc(-c2cc(Cl)ccc2OCCn2c(C)nc3cc(C(F)(F)F)cc(C#N)c3c2=O)cc(C(=O)O)n1 [compound 410] | 50 to 1000 | 62.6
27 | Cc1cc(-c2cc(Cl)ccc2OCCn2c(C)nc3cc(C(F)(F)F)cc(C#N)c3c2=O)cc(CC(=O)O)n1 [compound 411] | 50 to 1000 | 193
28 | CNC(=O)c1cc(C#N)c2c(=O)n(CCOc3ccc(Cl)cc3-c3ccnc4c(C(=O)O)csc34)c(C)nc2c1 [compound 412] | 50 to 1000 | 70.1
29 | Cc1nc2cc(C(=O)N(C)C)cc(C#N)c2c(=O)n1CCOc1ccc(Cl)cc1-c1ccnc2c(C(=O)O)csc12 [compound 413] | < 50 | 34.6
30 | CC(=O)c1cnn2c(-c3cc(Cl)ccc3OCCn3c(C)nc4cc(C(F)(F)F)cc(C#N)c4c3=O)cc(C)nc12 [compound 414] | < 50 | 20.5
31 | Cc1c(C(F)(F)F)cc(C#N)c2c(=O)n(CCOc3ccc(Cl)cc3-c3ccnc4c(C(=O)O)csc34)c(C)nc12 [compound 416] | < 50 | 23
32 | Cc1cc(-c2cc(Cl)ccc2OCCn2c(C)nc3cnc(C4CC4)c(C#N)c3c2=O)c2scc(C(=O)O)c2n1 [compound 418] | < 50 | 9.07
33 | Cc1cc(-c2cc(Cl)ccc2OCCn2c(C)nc3cnc(C)c(C#N)c3c2=O)c2scc(C(=O)O)c2n1 [compound 419] | < 50 | 
34 | Cc1cc(-c2cc(Cl)ccc2OCCn2c(C)nc3cnc(C(C)(C)C)c(C#N)c3c2=O)c2scc(C(=O)O)c2n1 [compound 420] | < 50 | 9.6
35 | Cc1cc(-c2cc(Cl)ccc2OCCn2c(C)nc3cc(C(F)(F)F)c(-c4ccccn4)c(C#N)c3c2=O)c2sc(C)c(C(=O)O)c2n1 [compound 421] | < 50 | 

Row | Structure (SMILES) | IC50 [1] [nM] | IC50 [2] [nM]
36 | Cc1cc(-c2cc(Cl)ccc2OCCn2c(C)nc3cnc(C(C)C)c(C#N)c3c2=O)c2scc(C(=O)O)c2n1 [compound 432] | < 50 | 25.8
37 | Cc1cc(-c2cc(Cl)ccc2OCCn2c(C)nc3cc(C(F)(F)F)c(-c4ncc(F)cc4F)c(C#N)c3c2=O)c2scc(C(=O)O)c2n1 [compound 433] | < 50 | 4.15
38 | Cc1ccc(F)c(-c2c(C(F)(F)F)cc3nc(C)n(CCOc4ccc(Cl)cc4-c4cc(C)nc5c(C(=O)O)csc45)c(=O)c3c2C#N)n1 [compound 434] | < 50 | 7.76
39 | Cc1cc(-c2cc(Cl)ccc2OCCn2c(C)nc3cc(C(F)(F)F)c(-c4cnc(C)nc4C)c(C#N)c3c2=O)c2scc(C(=O)O)c2n1 [compound 437] | < 50 | 6.21
40 | Cc1cc(-c2cc(Cl)ccc2OCCn2c(C)nc3cc(C(F)F)c(-c4cc(F)cnc4C)c(C#N)c3c2=O)c2scc(C(=O)O)c2n1 [compound 438] | < 50 | 9.16
41 | Cc1cc(-c2cc(Cl)ccc2OCCn2c(C)nc3cc(C(F)F)c(-c4cccnc4C)c(C#N)c3c2=O)c2scc(C(=O)O)c2n1 [compound 440] | < 50 | 4.99
42 | Cc1cc(-c2cc(Cl)ccc2OCCn2c(C)nc3c(C)nc(-c4cc(F)cnc4C)c(C#N)c3c2=O)c2scc(C(=O)O)c2n1 [compound 441] | < 50 | 20.4
43 | Cc1nc2cc(C(F)(F)F)cc(C#N)c2c(=O)n1CCOc1ccc(Cl)cc1-c1cc(Cl)nc2c(C(=O)O)csc12 [compound 444] | < 50 | 30.8
44 | Cc1nc2cc(C(F)(F)F)cc(C#N)c2c(=O)n1CCOc1ccc(Cl)cc1-c1cc(C(N)=O)nc2c(C(=O)O)csc12 [compound 445] | 50 to 1000 | 
45 | Cc1nc2cc(C(F)(F)F)cc(C#N)c2c(=O)n1CCOc1ccc(Cl)cc1-c1cc(C#N)nc2c(C(=O)O)csc12 [compound 446] | 50 to 1000 | 
46 | Cc1cc(-c2cc(Cl)ccc2OCCn2c(C)nc3cc(C(F)(F)F)cc(C#N)c3c2=O)c2csc(C(=O)O)c2n1 [compound 447] | 50 to 1000 | 84.8
47 | Cc1nc(N2CCN(C)CC2)c(C#N)c2c(=O)n(CCOc3ccc(Cl)cc3-c3ccnc4c(C(=O)O)csc34)c(C)nc12 [compound 448] | < 50 | 4.2
48 | Cc1cc(-c2cc(Cl)ccc2C#CCn2c(C)nc3c(C)nc(N4CCN(C)CC4)c(C#N)c3c2=O)c2scc(C(=O)O)c2n1 [compound 450] | < 50 | 7.84
49 | Cc1cc(-c2cc(Cl)ccc2OCCn2c(C)nc3cc(CN(C)C)c(OC(F)F)c(C#N)c3c2=O)c2scc(C(=O)NS(C)(=O)=O)c2n1 [compound 451] | < 50 | 36
50 | Cc1nc2cc(C(F)(F)F)cc(C#N)c2c(=O)n1CCOc1ccc(Cl)cc1-c1cc(CN)nc2c(C(=O)O)csc12 [compound 452] | < 50 | 46.6
51 | Cc1nc2cc(C(F)(F)F)cc(C#N)c2c(=O)n1CCOc1ccnnc1-c1ccnc2c(C(=O)O)csc12 [compound 453] | > 1000 | 2320
52 | Cc1nc2cc(C(F)(F)F)cc(C#N)c2c(=O)n1CCOc1cnc(Cl)nc1-c1ccnc2c(C(=O)O)csc12 [compound 454] | 50 to 1000 | 51.1
